Assay results: publication PMC9928118, “Funneling modulatory peptide design with generative models: Discovery and characterization of disruptors of calcineurin protein-protein interactions” (PLOS Computational Biology, 2023)

System: GST-tagged Cn
Experiment: PEPperPRINT peptide microarray binding assay with GST-tagged Cn
Summary of the method: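 Qualitative binding: peptides printed on a PEPperPRINT microarray were incubated overnight at 4 °C with 1 mg/ml GST-tagged Cn, then detected with Alexa-Fluor 647 anti-GST antibody. Log fluorescence was baseline-corrected, averaged over duplicate spots, Z-normalized and averaged across five repeats.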

[1] = max over the spots listed under Location on chip
[2] = mean over the spots listed under Location on chip
[3] = GST-tagged Cn, max over the spots named in Location on chip
[4] = GST-tagged Cn, mean over the spots named in Location on chip
[5] = GST-tagged Cn, max over the spots on the chip (two locations)
[6] = GST-tagged Cn, mean over the spots on the chip (two locations)
[7] = GST-tagged Cn, max over the chip spots listed under Location on chip
[8] = GST-tagged Cn, mean over the chip spots listed under Location on chip
[9] = max over the chip locations listed for the peptide (two spots)
[10] = mean over the chip locations listed for the peptide (two spots)
[11] = GST-tagged Cn, max over the chip locations
[12] = GST-tagged Cn, mean over the chip locations

## TFWTNPQFRITLEDVD [SeqRBMlowT_966]
[1]
  Chip Fluorescence (max): 2.9488
[2]
  Chip Fluorescence (mean): 0.108

## KAYMCPFMQFIDGGRK [SeqRBMlowT_522]
[1]
  Chip Fluorescence (max): 2.8656
[2]
  Chip Fluorescence (mean): 1.3266

## NAWKNPGQETHTTKKL [Seqshuffled_9929]
[3]
  Chip Fluorescence (max): 1.453
[4]
  Chip Fluorescence (mean): -0.5656

## GLCDSSKVNLVDAGPV [Seqshuffled_9731]
[5]
  Chip Fluorescence (max): 1.002
[6]
  Chip Fluorescence (mean): 0.1299

## TFWTNPQYRLKIPQVD [SeqRBMlowT_9671]
[7]
  Chip Fluorescence (max): 0.5794
[8]
  Chip Fluorescence (mean): -0.5687

## TFWTNPQFNVTLSEAD [SeqRBM_9395]
[1]
  Chip Fluorescence (max): 2.777
[2]
  Chip Fluorescence (mean): 0.5231

## SQAKSPRIEITAYTHV [SeqRBM_8514]
[7]
  Chip Fluorescence (max): 0.9232
[8]
  Chip Fluorescence (mean): -0.444

## TFWANPQFKIRLEEPD [SeqRBMlowT_2213]
[5]
  Chip Fluorescence (max): 1.142
[6]
  Chip Fluorescence (mean): -0.04147

## GPQDIPEVVVSPPEDD [SeqSLC4A7_Austrofundulus_limnaeus]
[9]
  Chip Fluorescence (max): 6.762
[10]
  Chip Fluorescence (mean): 1.072

## TFWTNPQYVITLEDPD [SeqRBMlowT_239]
[1]
  Chip Fluorescence (max): 3.22
[2]
  Chip Fluorescence (mean): 0.7373

## TFWTNPQFRLKLVDVD [SeqRBMlowT_5534]
[9]
  Chip Fluorescence (max): 3.886
[10]
  Chip Fluorescence (mean): 0.4656

## CDHMGLDIVIFVTELC [SeqRBM_1060]
[9]
  Chip Fluorescence (max): 8.388
[10]
  Chip Fluorescence (mean): 2.901

## LVWDNGSYTGRTIKAP [Seqshuffled_9818]
[7]
  Chip Fluorescence (max): 0.8809
[8]
  Chip Fluorescence (mean): -0.1421

## NMGTGVGIVITITEAV [SeqAKAP79_Meleagris_gallopavo]
[1]
  Chip Fluorescence (max): 2.665
[2]
  Chip Fluorescence (mean): 0.9097

## TFWTNPQFVITLEEVD [SeqRBMlowT_928]
[1]
  Chip Fluorescence (max): 3.091
[2]
  Chip Fluorescence (mean): 0.8732

## PALESPRIEITSCLGL [SeqNFATC1_Homo_sapiens]
[3]
  Chip Fluorescence (max): 1.48
[4]
  Chip Fluorescence (mean): 0.3949

## TFWTNPQFRITVTDPD [SeqRBMlowT_669]
[1]
  Chip Fluorescence (max): 2.934
[2]
  Chip Fluorescence (mean): 1.6891

## KSKLIPKLSIQSPVHH [SeqRBMlowT_830]
[11]
  Chip Fluorescence (max): -0.5565
[12]
  Chip Fluorescence (mean): -1.425

## TFWMNPQFKVKLEEVD [SeqRBMlowT_6848]
[3]
  Chip Fluorescence (max): 1.645
[4]
  Chip Fluorescence (mean): 1.054

## KRMEPIAIIITDTEIS [SeqAKAP79_Pan_troglodytes]
[9]
  Chip Fluorescence (max): 24.574
[10]
  Chip Fluorescence (mean): 3.689

## TFWTNPQYVITVTDPD [SeqRBMlowT_3207]
[7]
  Chip Fluorescence (max): 0.3855
[8]
  Chip Fluorescence (mean): -0.6772

## SAGAGVGIVITVTEAE [SeqRBMlowT_164]
[3]
  Chip Fluorescence (max): 1.523
[4]
  Chip Fluorescence (mean): -0.8688

## TFWTNPQYRVTVTDPD [SeqRBMlowT_615]
[3]
  Chip Fluorescence (max): 1.649
[4]
  Chip Fluorescence (mean): 0.4883

## VFWANPQFEVTLREDD [SeqRBM_5060]
[3]
  Chip Fluorescence (max): 1.773
[4]
  Chip Fluorescence (mean): 0.03485

## RFRTELSFGFTGFGTD [Seqshuffled_9528]
[7]
  Chip Fluorescence (max): 0.42
[8]
  Chip Fluorescence (mean): -0.6398

## ADEAAPEIVVSKPEHN [SeqRBMlowT_7698]
[11]
  Chip Fluorescence (max): 0.05556
[12]
  Chip Fluorescence (mean): -1.148

## KMAKFLINLSAEKSVM [Seqrandom_9965]
[5]
  Chip Fluorescence (max): 1.232
[6]
  Chip Fluorescence (mean): -0.1213

## QLLAVPALSVDRKGPK [SeqCACUL1_Dipodomys_ordii]
[5]
  Chip Fluorescence (max): 1.085
[6]
  Chip Fluorescence (mean): -0.04024

## HSKLIPKLSIQSPVHH [SeqRBMlowT_822]
[11]
  Chip Fluorescence (max): 0.1809
[12]
  Chip Fluorescence (mean): -0.5839

## VYWSNPQFIVKLEMVD [SeqRBM_6287]
[1]
  Chip Fluorescence (max): 2.588
[2]
  Chip Fluorescence (mean): 1.027

## TFWTNPQFRVTLTEPD [SeqRBMlowT_9005]
[9]
  Chip Fluorescence (max): 5.558
[10]
  Chip Fluorescence (mean): 0.117

## TFWTNPQFVVSLEEPD [SeqRBMlowT_8096]
[5]
  Chip Fluorescence (max): 1.137
[6]
  Chip Fluorescence (mean): -0.6823

## ADEAPPEITITPAELP [SeqRBMlowT_445]
[9]
  Chip Fluorescence (max): 5.264
[10]
  Chip Fluorescence (mean): 0.1816

## TFWTNPQFRITLEEVD [SeqRBMlowT_245]
[1]
  Chip Fluorescence (max): 2.7449
[2]
  Chip Fluorescence (mean): 0.8824

## KHLDVPDIIITPPTPT [SeqC16orf74_Pan_troglodytes]
[9]
  Chip Fluorescence (max): 11.1628
[10]
  Chip Fluorescence (mean): 2.896

## ASTSTFPQQQTAHKKQ [SeqBOI2_Podospora_anserina]
[11]
  Chip Fluorescence (max): -0.0111
[12]
  Chip Fluorescence (mean): -1.452

## ASVSNPEITVTSAETE [SeqRBM_9489]
[9]
  Chip Fluorescence (max): 15.1807
[10]
  Chip Fluorescence (mean): 1.275

## AFLATPSIIIHPPEGP [SeqRBM_2675]
[7]
  Chip Fluorescence (max): 0.739
[8]
  Chip Fluorescence (mean): -0.5185

## FETSHPTVQLKIPQLR [SeqLCORL_Pteropus_alecto]
[1]
  Chip Fluorescence (max): 2.606
[2]
  Chip Fluorescence (mean): -0.1576

## ATDNQPGIVVHICADM [SeqRCN1_Daphnia_magna]
[5]
  Chip Fluorescence (max): 1.1168
[6]
  Chip Fluorescence (mean): 0.4617

## ESSTTPGVVVHICEDD [SeqRBM_7485]
[9]
  Chip Fluorescence (max): 8.839
[10]
  Chip Fluorescence (mean): 1.544

## RAYINPFMQFTDGGRR [SeqRBMlowT_4069]
[5]
  Chip Fluorescence (max): 1.3045
[6]
  Chip Fluorescence (mean): 0.5135

## QGYKNPSAQFEPIGTK [SeqRBM_6874]
[11]
  Chip Fluorescence (max): -0.3081
[12]
  Chip Fluorescence (mean): -1.163

## ADQELSSFQPFYIEAS [Seqshuffled_9636]
[7]
  Chip Fluorescence (max): 0.9604
[8]
  Chip Fluorescence (mean): 0.1044

## TFWTNPQFRIKLEEVD [SeqRBMlowT_2987]
[9]
  Chip Fluorescence (max): 3.672
[10]
  Chip Fluorescence (mean): 2.469

## KTGMATDMQFNPIEQH [Seqshuffled_2687]
[7]
  Chip Fluorescence (max): 0.7078
[8]
  Chip Fluorescence (mean): 0.0887

## RAYINPFMQFIDGGRF [SeqRBMlowT_3663]
[7]
  Chip Fluorescence (max): 0.6841
[8]
  Chip Fluorescence (mean): -0.1666

## RTPGTALLTLRGHKKQ [SeqRBMlowT_5808]
[11]
  Chip Fluorescence (max): 0.1527
[12]
  Chip Fluorescence (mean): -0.8232
